Our source for the melting point values is a melting point compilation (Tetko et al.).

Usually melting point stands for the temperature of the solid-liquid transition.

`Cc1cc(S(=O)(=O)Cl)cc([N+](=O)[O-])c1C` had a melting point of 127 to 129 °C.
Under `Cc1sc(C(=O)O)cc1[N+](=O)[O-]` stands 97 to 99 °C; under `Cc1ccc(C#N)c(OC2CCCC2)c1`, 66 to 68 °C; under `O=C1CC(=Cc2ccc(F)cc2)C(=O)N1`, 209 to 211 °C.
Next, `Nc1cccc(Cn2[nH]c(=O)ccc2=O)c1`: 163 to 165 °C; `Cc1cc(O)nc(NN)n1`: 213 to 215 °C; `Cc1cc(C)cc(CCC(=O)O)c1`: 49 to 51 °C.
Under `CCN(CCO)c1ccc(NS(=O)(=O)c2ccc(N)cc2)cc1` stands 114 to 116 °C.
As for `Cc1[nH]c(=O)c(C(=O)O)cc1-c1ccc(O)cc1`, the melting point lay in the range of 296 to 298 °C.
Next, `O=C(O)CCc1ccc(C(F)(F)F)cc1`: 106 to 110 °C.
Consider `O=C(NO)c1ccccc1C(F)(F)F`, for which the melting point lay in the range of 157 to 159 °C.
Next, `CCOc1ccc(S(=O)(=O)Cl)c2ccccc12`: 98 to 100 °C; `Nc1ccc(-c2csc(N3CCOCC3)n2)cc1`: 174 to 176 °C; `Cc1ncc(C(=O)O)c(=O)[nH]1`: 310 to 312 °C.
Under `COc1ccc(C(C)=O)cc1CN1CCCCC1` stands 54 to 56 °C; under `CCN1CCN(Cc2ccc(N)cc2)CC1`, 72 to 74 °C.
Regarding `Cc1cc([N+](=O)[O-])cc(C)c1N`, the melting point was in the range of 161 to 163 °C.
Next, `CC(C)(C)C(=O)N1CCc2cc(C(=O)O)ccc21`: 195 to 197 °C; `O=C(O)CSc1ncnc2scc(-c3ccccc3)c12`: 186 to 188 °C; `CC(=O)c1csc(C(=O)CCl)c1`: 124 to 126 °C.
As for `O=C(O)CSc1csc(-c2ccc(Br)cc2)n1`, the melting point was in the range of 178 to 180 °C.
Under `NNC(=O)C1CCC1` stands 91 to 93 °C; under `Cc1nn(CCO)c(C)c1C=O`, 67 to 69 °C; under `NC(CCl)=NO`, 83 to 87 °C.
Under `Cc1cc(S(=O)(=O)Cl)ccc1-n1cnnn1` stands 134 to 136 °C.
Under `Nc1ccc(CCC(=O)O)nc1` stands 113 to 115 °C.
`Cn1cc(N2CCCC(Br)C2=O)cn1` (configuration not stated) displayed a melting point of 121 to 123 °C.
Next, `CCN(CC)S(=O)(=O)c1ccc(=O)n(CC(=O)O)c1`: 182 to 189 °C; `Sc1nccn1Cc1ccccn1`: 173 to 175 °C.
Compound `CS(=O)(=O)c1ccc2nnn(O)c2c1` returned a melting point of 192 to 194 °C.
Under `Cc1ccc(N)c(N)c1C` stands 49 to 51 °C.
Under `O=C(O)c1ccc(Br)cc1-n1cncn1` stands 293 to 295 °C; under `CCOc1ccc(OCc2ccc(C(=O)NN)cc2)cc1`, 127 to 129 °C.
Under `NC(=O)Cc1cc(Br)c(-c2ccc(N)cc2)s1` stands 189 to 191 °C; under `O=C(O)Cc1ccon1`, 84 to 86 °C.
The compound `Cc1ccc(-c2nc(N)sc2C)cc1` showed a melting point of 173 to 175 °C.
Next, `Cc1ccccc1C(=O)NC1CCNCC1`: 129 to 131 °C; `CCCCCCn1nc(C(=O)O)c2ccccc2c1=O`: 124 to 126 °C.
In turn, `Nc1nc(-c2ccc3c(c2)COC3)cs1` displayed a melting point of 204 to 206 °C.
Next, `CCCn1nc(C)c(C(=O)O)c1C`: 113 to 115 °C; `COc1ccc2c(c1)OCC2=O`: 119 to 121 °C; `N#Cc1ccccc1Oc1ccc(N)cc1`: 118 to 120 °C.
Next, `NCCCS(=O)(=O)Cc1ccccc1`: 63 to 65 °C; `COC(=O)Nc1ccc(O)cc1`: 115 to 117 °C; `Nc1ncn(-c2ccccn2)n1`: 174 to 176 °C.
In turn, `COc1c(C=O)c(C)nn1C` registered a melting point of 55 to 57 °C.
Next, `Cc1ccc(C)n1-c1ccc(N)cc1`: 93 to 95 °C; `COc1ccc(/C=C/C(=O)O)cc1S(=O)(=O)N(C)C`: 229 to 231 °C; `NCCCc1nc2ccccc2[nH]1`: 210 to 212 °C.
`O=C(O)Cn1cnc2ccc(Br)cc2c1=O` came in with a melting point of 277 to 279 °C.
`O=C(O)/C=C/c1ccc(-n2ccnc2)cc1`: the melting point lay in the range of 300 to 302 °C.
`Clc1nc(-c2ccccn2)nc2c1CCC2` came in with a melting point of 142 to 144 °C.
Next, `CC(C)c1ccc(C(N)=S)cc1`: 148 to 150 °C; `COc1cc2c(cc1C(=O)CCl)C(=O)CO2`: 176 to 178 °C; `CC(Nc1nc2ccccc2s1)C(=O)NN` (configuration not stated): 174 to 176 °C.
Next, `NS(=O)(=O)C=Cc1ccc(F)cc1`: 148 to 150 °C; `Nc1ccc(OCc2ccco2)c(Cl)c1`: 72 to 74 °C.
Next, `O=C(O)COc1ccc(Cl)cc1C1CCCCC1`: 167 to 169 °C.
Compound `COc1ccccc1NS(=O)(=O)c1cc(N)ccc1N1CCCC1` yielded a melting point of 159 to 161 °C.
`OCc1ncc(-c2cccc(Cl)c2)o1` registered a melting point of 101 to 103 °C.
As to `O=C1Nc2cc(F)ccc2C1=O`, the melting point was in the range of 184 to 186 °C.
`Cc1ccccc1-c1nn[nH]n1`: the melting point is 153 to 155 °C.
Take `Nc1ncn(CC(=O)NCc2ccccc2)n1`: the melting point is 181 to 183 °C.
Next, `Cn1ncc2ccc(C#N)cc21`: 104 to 106 °C.
As to `O=C(Nc1ccc(F)cc1F)OCC(F)(F)F`, the melting point was 72 to 74 °C.
Under `Cc1cc(-c2csc(N)n2)c(F)cc1F` stands 219 to 221 °C; under `CC1(NC(=O)CCl)CCS(=O)(=O)C1` (configuration not stated), 96 to 98 °C.
Compound `NC(CNS(=O)(=O)c1ccc(F)cc1)=NO` had a melting point of 148 to 150 °C.
For `Cc1ccc(-n2nnnc2S)c(C)c1`, the melting point was in the range of 110 to 112 °C.
In the case of `Cc1[nH]c2ccc(Cl)cc2c1C=O`, the melting point lay within 248 to 250 °C.
Next, `CC(=O)Nc1ccc(S(=O)(=O)NCc2ccc(C(=O)O)cc2)cc1`: 269 to 271 °C; `ClCc1coc(-c2ccc(Br)cc2)n1`: 112 to 114 °C.
Under `NCc1ccc(OCc2ccccc2)cc1` stands 51 to 53 °C; under `CC(C)c1ccc(C(=O)CCl)cc1`, 44 to 46 °C; under `Fc1ccc(-c2cc[nH]n2)cc1`, 96 to 98 °C.
Next, `CC(NC(=O)c1ccccc1Cl)C(=O)O` (configuration not stated): 137 to 139 °C; `Cc1cc(C=O)c(C)n1-c1cccc([N+](=O)[O-])c1`: 149 to 151 °C.
`O=C(O)C1CC1C(=O)N1CCN(c2ccccc2)CC1` (configuration not stated) came in with a melting point of 155 to 157 °C.
`CC(=CC(=O)O)c1ccc(F)cc1F` had a melting point of 157 to 159 °C.
Next, `O=C(O)C1(c2ccc(F)cc2)CCC1`: 67 to 69 °C.
The compound `COc1cc(OC)cc(C(O)CN)c1` (configuration not stated) displayed a melting point of 92 to 94 °C.
Under `Cc1nn(-c2ccccc2)c(N)c1SC#N` stands 108 to 110 °C.
Under `Nc1ccc2c(c1)S(=O)(=O)CC2` stands 197 to 199 °C.
Under `O=C(c1ccsc1)N1CCNCC1` stands 235 to 237 °C; under `CCCc1nnc(S)n1CC(=O)O`, 226 to 228 °C.
`CC1CC(C)CN(S(=O)(=O)Cl)C1` (configuration not stated) displayed a melting point of 41 to 43 °C.
Under `COc1ccc(C(=O)O)cc1OC(F)F` stands 179 to 181 °C.
